Each structure is given as a SMILES string.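 96-well plates; 48 h exposure; 5 concentrations. Endpoints by linear interpolation between flanking doses. Not reached: highest tested concentration assigned. GI50 marks 50% less growth.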 Calls of active or inactive are those of the source. Cut-off read from the data, not from the text of the source: active = GI50 up to about 1.1 µM and inactive = higher. A value given as a limit tells only on which side of the number the result lay.

Among the test systems are A498; NCI-H226; LOX IMVI; MDA-MB-435; HL-60; COLO 205; ACHN; SN12C; U-251; SW-620; OVCAR-5; A549; UO-31; OVCAR-4; CCRF-CEM; MCF7; SF-268; UACC-62; HCC 2998; Hs-578T.
Common to all, as to experiment: NCI tumour cell line growth inhibition, 48 h

For the compound `CCOc1cc(NC(C)=O)ccc1C(=O)NN1C(=O)/C(=C/c2ccc(Cl)cc2)N=C1c1ccccc1`, the GI50 in the assay with A498 was 24.9 µM (inactive); in the assay with NCI-H226, 42.8 µM (inactive); in the assay with LOX IMVI it was 62.7 µM (inactive); in the assay on MDA-MB-435 it was 35.6 µM (inactive); with HL-60, 34.1 µM (inactive); in the assay with COLO 205 it was 33.7 µM (inactive). Further, the GI50 with ACHN is 51.1 µM (inactive); with SN12C it was 70.6 µM (inactive); with U-251 it was 55.8 µM (inactive); in the assay on SW-620, > 100 µM (inactive); in the assay with OVCAR-5, > 100 µM (inactive); in the assay on A549 it was 37.8 µM (inactive). For the same compound, the GI50 in the assay with UO-31 is 34.9 µM (inactive); with OVCAR-4, 22.3 µM (inactive); with CCRF-CEM, 25 µM (inactive); with MCF7, 4.67 µM (inactive).
Turning to `COc1c(Br)cc(/C=C(\C#N)c2ccccn2)cc1Br`, the GI50 with A498 was < 0.01 µM (active); in the assay on NCI-H226, 48.4 µM (inactive); with HL-60, > 100 µM (inactive); in the assay on COLO 205, > 100 µM (inactive); in the assay on ACHN it was > 100 µM (inactive); with SN12C, > 100 µM (inactive). The GI50 in the assay on U-251 was 13.3 µM (inactive); with SW-620, > 100 µM (inactive); in the assay on SF-268, 23.2 µM (inactive); in the assay on UACC-62, 10.8 µM (inactive); in the assay with OVCAR-5 it was > 100 µM (inactive); in the assay on A549 it was > 100 µM (inactive). The GI50 in the assay on UO-31 was > 100 µM (inactive); in the assay with HCC 2998, > 100 µM (inactive); in the assay on CCRF-CEM, > 100 µM (inactive); with MCF7, 26.1 µM (inactive).
As for `CC1(CCOCc2ccccc2)NC(=O)NC1=O` (stereo unspecified), the GI50 with Hs-578T, in the assay on A498, in the assay on NCI-H226, with LOX IMVI, with MDA-MB-435 and with ACHN was > 100 µM (inactive) throughout. For the same compound, the GI50 in the assay with SN12C, in the assay on U-251, in the assay with SW-620, in the assay with SF-268, in the assay with UACC-62 and in the assay on OVCAR-5 was > 100 µM (inactive) in each case. The GI50 in the assay with A549, in the assay with UO-31, in the assay on HCC 2998 and in the assay with OVCAR-4 was > 100 µM (inactive) throughout.
Turning to `CN(C)CCNC(=O)c1cc(-c2nccn2C)nc2ccccc12`, the GI50 with A498, in the assay with NCI-H226, in the assay on LOX IMVI, in the assay with MDA-MB-435, in the assay with HL-60 and in the assay on COLO 205 was > 100 µM (inactive) throughout. Besides, the GI50 in the assay on ACHN is 58.3 µM (inactive); with SN12C it was > 100 µM (inactive); in the assay with U-251 it was > 100 µM (inactive); in the assay with SW-620, > 100 µM (inactive); with SF-268, > 100 µM (inactive); in the assay with UACC-62, > 100 µM (inactive). Further, the GI50 is > 100 µM (inactive) with OVCAR-5; > 100 µM (inactive) in the assay with A549; 52.8 µM (inactive) in the assay with UO-31; > 100 µM (inactive) in the assay on HCC 2998; > 100 µM (inactive) in the assay on CCRF-CEM; 70.1 µM (inactive) in the assay with MCF7.
Turning to `Cc1sc(N/N=C2\C(=O)Nc3ccccc32)nc1-c1ccccc1`, the GI50 with A498 is 15.1 µM (inactive); in the assay with NCI-H226, 33.3 µM (inactive); in the assay on LOX IMVI it was 12.6 µM (inactive); with MDA-MB-435 it was 19.6 µM (inactive); in the assay on HL-60, 4.23 µM (inactive); in the assay with COLO 205, 13.4 µM (inactive). Moreover, the GI50 was 15.3 µM (inactive) with ACHN; 12.1 µM (inactive) in the assay on SN12C; 11 µM (inactive) in the assay with U-251; 23.6 µM (inactive) with SW-620; 13.6 µM (inactive) with SF-268; 13.7 µM (inactive) in the assay with UACC-62. Also, the GI50 with OVCAR-5 was 20.9 µM (inactive); in the assay with A549 it was 14.8 µM (inactive); in the assay with UO-31 it was 13.6 µM (inactive); in the assay on HCC 2998 it was 22.2 µM (inactive); in the assay on OVCAR-4, 13.9 µM (inactive); with MCF7 it was 15.3 µM (inactive).
`COC(=O)[C@@H]1CCCN1CCN1CCC[C@H]1C(=O)OC`: the GI50 in the assay on A498, in the assay on MDA-MB-435, with COLO 205, in the assay on ACHN, in the assay on SN12C and in the assay on U-251 was > 100 µM (inactive) throughout. Also, the GI50 with SW-620, in the assay on SF-268, with UACC-62, with OVCAR-5, in the assay with A549 and in the assay on UO-31 was > 100 µM (inactive) in each case. In addition, the GI50 in the assay with OVCAR-4 and in the assay with MCF7 was > 100 µM (inactive) each time.
With `Cc1cc(S(=O)(=O)Nc2nc(N)nc(N(C)C)n2)c(S)cc1Cl`, the GI50 with A498, in the assay on NCI-H226, in the assay on LOX IMVI, in the assay on HL-60, in the assay on COLO 205 and in the assay on ACHN was > 10 µM (inactive) throughout. The GI50 in the assay on SN12C, with U-251, in the assay on SW-620, in the assay with SF-268, in the assay with OVCAR-5 and in the assay on A549 was > 10 µM (inactive) each time. For the same compound, the GI50 in the assay on UO-31, in the assay with HCC 2998, in the assay on OVCAR-4, with CCRF-CEM and with MCF7 was > 10 µM (inactive) throughout.
On to `CCCCCCNC(=O)CCC(NC(=O)c1ccc(N(C)Cc2cnc3nc(N)nc(N)c3n2)cc1)C(=O)NCCCCCC` (stereo unspecified), for which the GI50 in the assay on A498 is > 100 µM (inactive); in the assay with NCI-H226, > 100 µM (inactive); in the assay on LOX IMVI, 12.4 µM (inactive); in the assay on MDA-MB-435, > 100 µM (inactive); with COLO 205, > 100 µM (inactive); with ACHN, > 100 µM (inactive). Moreover, the GI50 was > 100 µM (inactive) in the assay with SN12C; > 100 µM (inactive) in the assay on U-251; > 100 µM (inactive) in the assay with SW-620; > 100 µM (inactive) with SF-268; 2.68 µM (inactive) in the assay on UACC-62; > 100 µM (inactive) with OVCAR-5. The GI50 with A549 is > 100 µM (inactive); in the assay with UO-31, > 100 µM (inactive); with HCC 2998, > 100 µM (inactive); with OVCAR-4, > 100 µM (inactive); with CCRF-CEM, > 100 µM (inactive); in the assay on MCF7 it was 18.3 µM (inactive).
As for `CCOC(=O)/C(=C\c1ccc(O)c(OC)c1)C(=O)c1ccccc1`, the GI50 in the assay on A498 was 17 µM (inactive); in the assay on NCI-H226, 23.2 µM (inactive); in the assay with LOX IMVI, 7.21 µM (inactive); with HL-60, 10.4 µM (inactive); with COLO 205 it was 36.1 µM (inactive); with ACHN, 15.8 µM (inactive). Moreover, the GI50 in the assay with SN12C was 11.1 µM (inactive); with U-251 it was 13.5 µM (inactive); with SW-620, 13.1 µM (inactive); in the assay with SF-268, 9.62 µM (inactive); with UACC-62, 13.7 µM (inactive); with OVCAR-5, 26.8 µM (inactive). The GI50 is 18.2 µM (inactive) with A549; 23 µM (inactive) in the assay with UO-31; 19.6 µM (inactive) with HCC 2998; 13.9 µM (inactive) with OVCAR-4; 7.5 µM (inactive) with CCRF-CEM.
For the compound `C[C@@]1(OC(=O)c2cc([N+](=O)[O-])cc([N+](=O)[O-])c2)C[C@@H]2CCCC[C@@H]21`, the GI50 was 41.8 µM (inactive) in the assay with Hs-578T; > 100 µM (inactive) in the assay with NCI-H226; > 100 µM (inactive) with LOX IMVI; > 100 µM (inactive) with HL-60; > 100 µM (inactive) with COLO 205; > 100 µM (inactive) in the assay with ACHN. Besides, the GI50 in the assay with SN12C, with U-251, in the assay with SW-620, in the assay on SF-268, in the assay with UACC-62 and in the assay with OVCAR-5 was > 100 µM (inactive) throughout. The GI50 with A549, in the assay with UO-31, in the assay with HCC 2998, with OVCAR-4, with CCRF-CEM and in the assay with MCF7 was > 100 µM (inactive) each time.
For the compound `COc1cccc2c1CCc1cc3c(N)nc(N)nc3nc1-2`, the GI50 in the assay on A498 is 9.27 µM (inactive); in the assay on NCI-H226, 12.6 µM (inactive); in the assay with LOX IMVI, 0.34 µM (active); in the assay with MDA-MB-435 it was 5.3 µM (inactive); in the assay on COLO 205 it was 4.02 µM (inactive); in the assay with ACHN it was 5.75 µM (inactive). Besides, the GI50 in the assay with SN12C was 6.43 µM (inactive); in the assay on U-251, 2.67 µM (inactive); with SW-620, 3.65 µM (inactive); in the assay on SF-268 it was 6.73 µM (inactive); in the assay on UACC-62 it was 7.23 µM (inactive); in the assay with OVCAR-5 it was 6.92 µM (inactive). Besides, the GI50 is 2.45 µM (inactive) in the assay on A549; 3.21 µM (inactive) with UO-31; 2.29 µM (inactive) in the assay with HCC 2998; 6.22 µM (inactive) in the assay on OVCAR-4; 2.55 µM (inactive) with CCRF-CEM; 6.31 µM (inactive) in the assay with MCF7.
